# Where “and” joins values, the source holds several entries; their conditions need not be identical. Equal entries are not always repeated. Entries after “also recorded” stand apart in the source; their conditions may differ.
# Tests used:
# [1] = molecular target: P[8] VP8* (BM13851) (Rotavirus A, UniProt P11193); assay: 2D 1H-15N HSQC NMR titration of P[8] VP8* with glycans; assay type: binding, human RV; settings: for Kd: read-out: dissociation constant (Kd), PBS buffer, global fitting
# Method: Chemical shift perturbations were followed by 2D ^1H-^15N HSQC for P[8] VP8*, P[8] mutants, and P[6] VP8* upon titration of each glycan ligand. NMR data were collected with samples in PBS buffer in 5-mm Shigemi NMR tubes on 600-MHz Bruker Avance III or 850-MHz Bruker Avance II NMR spectrometers equipped with conventional 5-mm HCN probes. Samples of 0.20 mM ^15N-labeled P[8] VP8* was titrated with LNDFH I at 0, 0.020, 0.040, 0.80, 1.00, 1.20, 1.40, 1.60, 2.00, 2.80, 3.60, 4.40, 5.00 mM. The same ratio of LNDFH I was titrated to each P[8] mutant as the titration of LNDFH I to wild type P[8]. Samples of 0.31 mM ^15N-labeled P[8] VP8* was titrated with Le^b tetra-saccharide at 0, 0.031, 0.15, 0.31, 0.62, 1.24, 2.49, 4.35, 5.60, 6.84, 7.78, 8.71, 9.33 mM. Samples of 0.24 mM ^15N-labeled P[6] VP8* was titrated with LNFP I at 0, 0.024, 0.12, 0.24, 0.48, 0.96, 1.93, 3.37, 4.34, 5.30, 6.03, 6.75, 7.23, 8.44 mM. Samples of 0.33 mM ^15N-labeled P[6] VP8* was titrated with LNT at 0, 0.033, 0.17, 0.33, 0.69, 1.34, 2.67, 4.68, 6.01, 7.35, 8.35 mM. Spectra were process with NMRPipe software and analyzed with SPARKY [69]. The chemical shift changes upon titration was determined by the following formula [71]: Δδobs=1/2[δH2+(α·δN2)],δH=δHfree−δHbound,δN=δNfree−δNbound . Where δH free and δH bound are the backbone amide hydrogen chemical shifts in the absence and presence of ligand, δN free and δN bound are the amide nitrogen chemical shifts in the free and bound state. The value of Euclidean weighting correction factor α was set to 0.14 [72]. Standard deviation σ of the Euclidean chemical shift change was calculated and threshold value was chosen from 1.5σ to 2.5σ for the VP8*-HBGA by balancing the specificity and sensitivity. Amino acids with chemical shifts greater than the threshold value were used to calculate the dissociation constants. Dissociation constants were obtained by fitting the following equation: Δδobs=Δδmax{([P]t+[L]t+Kd)−[([P]t+[L]t+Kd)^2−4[P]t[L]t]^1/2}/2Pt . Where [P]t and [L]t represent the total concentrations of protein and ligand, Δδobs is the change in the observed chemical shift from the free state, Δδmax is the maximum chemical shift change on saturation, Kd represents the dissociation constant.
# [2] = molecular target: P[6] VP8* (BM11596) (Rotavirus A, UniProt D2DXN5); assay: 2D 1H-15N HSQC NMR titration of P[6] VP8* with glycans; assay type: binding, human RV
# Method: Chemical shift perturbations were followed by 2D ^1H-^15N HSQC for P[8] VP8*, P[8] mutants, and P[6] VP8* upon titration of each glycan ligand. NMR data were collected with samples in PBS buffer in 5-mm Shigemi NMR tubes on 600-MHz Bruker Avance III or 850-MHz Bruker Avance II NMR spectrometers equipped with conventional 5-mm HCN probes. Samples of 0.20 mM ^15N-labeled P[8] VP8* was titrated with LNDFH I at 0, 0.020, 0.040, 0.80, 1.00, 1.20, 1.40, 1.60, 2.00, 2.80, 3.60, 4.40, 5.00 mM. The same ratio of LNDFH I was titrated to each P[8] mutant as the titration of LNDFH I to wild type P[8]. Samples of 0.31 mM ^15N-labeled P[8] VP8* was titrated with Le^b tetra-saccharide at 0, 0.031, 0.15, 0.31, 0.62, 1.24, 2.49, 4.35, 5.60, 6.84, 7.78, 8.71, 9.33 mM. Samples of 0.24 mM ^15N-labeled P[6] VP8* was titrated with LNFP I at 0, 0.024, 0.12, 0.24, 0.48, 0.96, 1.93, 3.37, 4.34, 5.30, 6.03, 6.75, 7.23, 8.44 mM. Samples of 0.33 mM ^15N-labeled P[6] […] Spectra were process with NMRPipe software and analyzed with SPARKY [69]. The chemical shift changes upon titration was determined by the following formula [71]: Δδobs=1/2[δH2+(α·δN2)],δH=δHfree−δHbound,δN=δNfree−δNbound . […] Standard deviation σ of the Euclidean chemical shift change was calculated and threshold value was chosen from 1.5σ to 2.5σ for the VP8*-HBGA by balancing the specificity and sensitivity. […]
# [3] = test system: P[6] VP8*; assay: STD NMR of glycans with P[6] VP8*; assay type: binding, human RV; settings: 283 K
# Method: (§1) All STD NMR spectra were acquired in Shigemi Tubes (Shigemi, USA) on 600-MHz Bruker Avance III and 850-MHz Bruker Avance II NMR spectrometers equipped with conventional 5-mm HCN probes at 283 K with pulse sequence STDDIFFESGP.3. The NMR samples for P[8] VP8* were prepared as 46 μM P[8] VP8* with 2.3 mM LNDFHI (1:50 protein: ligand ratio), and 33 μM P[8] VP8* with 1.86 mM Le^b tetra-saccharide (1:56 protein: ligand ratio). The NMR samples for P[6] VP* were prepared as 46 μM P[6] with 4.6 mM LNT (1:100 protein: ligand ratio), and 46 μM P[6] with 2.3 mM LNT (1:50 protein: ligand ratio). A control sample was prepared as 40 μM GST with 2.0 mM LNDFHI (1:50 protein: ligand ratio). […] The protein resonances were saturated with a cascade of Gaussian-shaped pulses with a duration of 50 ms, with a total saturation time of 2 s and 4 s. The on resonance was chosen to selectively saturate only the proteins for each sample. […] The STD amplification factors were determined by the equation (ISTD/IO) × molar ratio, where I0 are the intensities of the signals in the reference spectrum, and ISTD are intensities that obtained by subtracting the on-resonance spectrum from the off-resonance spectrum. The normalized STD amplification percentage for epitope mapping was determined by dividing by the largest STD amplification factor for each ligand.
# [4] = test system: P[8] VP8*; assay: STD NMR of glycans with P[8] VP8*; assay type: binding, human RV; settings: 283 K; 1:50 or 1:56 protein:ligand
# Method: as §1
# [5] = test system: P[8] VP8*; design: method as in PMID 31226167; settings: cited from earlier work
# [6] = test system: glutathione S-transferase (GST); assay: STD NMR negative control with GST; assay type: binding; settings: 40 μM GST with 2.0 mM ligand
# Method: as §1
# [7] = test system: T78A-P[8] VP8* mutant; assay: HSQC NMR titration of T78A-P[8] mutant with LNDFH I; assay type: binding, human RV; settings: same ligand ratio as wild type P[8]
# Method: (§2) The VP8* core fragments (amino acids 64 to 223) of the human RV P[8] (BM13851) and P[6] (BM11596) with an N-terminal glutathione S-transferase (GST) tag was overexpressed in Escherichia coli BL21 (DE3) cells as previously described. The P[8] T78A, D79A, K168A, R154A, H177A, and D186A mutations were generated through overlap-extension site mutagenesis, and the sequences were confirmed at the Center for Bioinformatics and Functional Genomics (CBFG) at Miami University. Cells were grown in 1L Luria broth (LB) medium supplemented with 100 μg mL^-1 ampicillin at 310 K. When the OD600 reached 0.8, 0.5 mM isopropyl-β-D-thiogalactopyranoside was added to the medium to induce protein expression. The cell pellet was harvested within 12 h after induction and re-suspended in the phosphate-buffered saline (PBS) buffer (140 mM NaCl, 2.7 mM KCl, 10 mM Na2HPO4, 1.8 mM KH2PO4, pH 7.3). […]
# (§3) Chemical shift perturbations were followed by 2D ^1H-^15N HSQC for P[8] […] Spectra were process with NMRPipe software and analyzed with SPARKY [69]. The chemical shift changes upon titration was determined by the following formula [71]: Δδobs=1/2[δH2+(α·δN2)],δH=δHfree−δHbound,δN=δNfree−δNbound . […] Standard deviation σ of the Euclidean chemical shift change was calculated and threshold value was chosen from 1.5σ to 2.5σ for the VP8*-HBGA by balancing the specificity and sensitivity. […]
# [8] = test system: D79A-P[8] VP8* mutant; assay: HSQC NMR titration of D79A-P[8] mutant with LNDFH I; assay type: binding, human RV; settings: same ligand ratio as wild type P[8]
# Method: as §2, §3
# [9] = test system: K168A-P[8] VP8* mutant; assay: HSQC NMR titration of K168A-P[8] mutant with LNDFH I; assay type: binding, human RV; settings: same ligand ratio as wild type P[8]
# Method: as §2, §3
# [10] = test system: R154A-P[8] VP8* mutant; assay: HSQC NMR titration of R154A-P[8] mutant with LNDFH I; assay type: binding, human RV; settings: same ligand ratio as wild type P[8]
# Method: as §2, §3
# [11] = test system: H177A-P[8] VP8* mutant; assay: HSQC NMR titration of H177A-P[8] mutant with LNDFH I; assay type: binding, human RV; settings: same ligand ratio as wild type P[8]
# Method: as §2, §3
# [12] = test system: D186A-P[8] VP8* mutant; assay: HSQC NMR titration of D186A-P[8] mutant with LNDFH I; assay type: binding, human RV; settings: same ligand ratio as wild type P[8]
# Method: as §2, §3
SMILES,Kd [2],binding to P[6] VP8* by STD NMR [3],Kd [1],binding to P[8] VP8* by STD NMR [4],also measured
"CC(=O)NC1C(OC2C(O)C(CO)OC(OC3C(CO)OC(O)C(O)C3O)C2O)OC(CO)C(O)C1OC1OC(CO)C(O)C(O)C1O (stereo not drawn) [LNT, lacto-N-tetraose]",2.5 ± 0.2 mM,bound,–,–,binding to P[8] VP8* in HSQC titration [1]: little binding signal; also recorded: did not recognize
"CC(=O)NC1C(OC2C(O)C(CO)OC(OC3C(CO)OC(O)C(O)C3O)C2O)OC(CO)C(O)C1OC1OC(CO)C(O)C(O)C1OC1OC(C)C(O)C(O)C1O (stereo not drawn) [LNFP I, lacto-N-fucopentaose I]",13.6 ± 1.7 mM,bound,23.5 mM,–,–
"CC(=O)NC1C(O)OC(CO)C(OC2OC(C)C(O)C(O)C2O)C1OC1OC(CO)C(O)C(O)C1OC1OC(C)C(O)C(O)C1O (stereo not drawn) [Le^b tetra-saccharide, Fucα1-2Galβ1–3[Fucα1–4]GlcNAc]",–,–,20.3 ± 4.8 mM,found to bind,–
CC(=O)N[C@H]1C(O)O[C@H](CO)[C@@H](O)[C@@H]1O[C@@H]1O[C@H](CO)[C@H](O)[C@H](O)[C@H]1O (stereo partly drawn) [lacto-N-biose],–,–,–,–,affinity relative to H1 trisaccharide [5]: two-fold weaker affinity
"CC(=O)NC1C(OC2C(O)C(CO)OC(OC3C(CO)OC(O)C(O)C3O)C2O)OC(CO)C(OC2OC(C)C(O)C(O)C2O)C1OC1OC(CO)C(O)C(O)C1OC1OC(C)C(O)C(O)C1O (stereo not drawn) [LNDFH I, lacto-N-difucohexaose I]",–,–,6.3 mM and 6.29 mM,found to bind,STD NMR signal with GST (negative control) [6]: did not show significant signal intensities; binding to T78A-P[8] mutant [7]: retained binding to the glycan; binding to D79A-P[8] mutant [8]: retained binding to the glycan; binding to K168A-P[8] mutant [9]: retained binding to the glycan; binding to R154A-P[8] mutant [10]: significant loss of binding to the glycan; binding to H177A-P[8] mutant [11]: significant loss of binding to the glycan; binding to D186A-P[8] mutant [12]: significant loss of binding to the glycan

# Source: PMC7122821, “Molecular basis of P[II] major human rotavirus VP8* domain recognition of histo-blood group antigens” (PLoS Pathogens, 2020)
